Results as given in article PMC7158214 (Clinical Pharmacology and Therapeutics, 2020).
“And” between values parts separate entries of the source, which are not always exact repeats. Identical values can stand only once. Like-named read-outs stand apart in the source and are kept apart here.

Experiments:
[1] = system: OATP1B; experiment: Nonlinear regression of AUCR^-1 vs rifampicin Cmax; type: in vivo, human; conditions: from AUCR based on AUC0-24h
[2] = system: OATP1B; experiment: Effect of rifampicin on plasma AUC0-24h of endogenous compounds; type: in vivo, human; conditions: for AUC0-24h Geometric Mean Ratio Control/Baseline (90% CI): probe cocktail vs placebo day; for AUC0-24h Geometric Mean Ratio +RIF/Control (90% CI): +RIF600
[3] = system: OATP1B; conditions: +RIF600
[4] = cited from earlier work
[5] = type: in vivo; conditions: human, plasma, po

C[C@H](CCC(=O)O[C@@H]1O[C@H](C(=O)O)[C@@H](O)[C@H](O)[C@H]1O)[C@H]1CC[C@H]2[C@@H]3[C@H](O)C[C@@H]4C[C@H](O)CC[C@]4(C)[C@H]3CC[C@]12C [CDCA-24G, chenodeoxycholate‐24‐glucuronide]
fRIF (fraction sensitive to inhibition by rifampicin) [1]: 0.801 ± 0.124
AUC0-24h Geometric Mean Ratio Control/Baseline (90% CI) [2]: > 1.25 and 1.4

C[C@H](CCC(=O)NCC(=O)O)[C@H]1CC[C@H]2[C@@H]3[C@H](O)C[C@@H]4C[C@H](O)CC[C@]4(C)[C@H]3C[C@H](O)[C@]12C [GCA, glycocholate]
AUC0-24h Geometric Mean Ratio Control/Baseline (90% CI) [2]: > 1.25

C[C@H](CCC(=O)NCC(=O)O)[C@H]1CC[C@H]2[C@@H]3[C@H](O)C[C@@H]4C[C@H](O)CC[C@]4(C)[C@H]3CC[C@]12C [GCDCA, glycochenodexoxycholate]
AUC0-24h Geometric Mean Ratio Control/Baseline (90% CI) [2]: > 1.25

C[C@H](CCC(=O)NCC(=O)O)[C@H]1CC[C@H]2[C@@H]3[C@H](O)C[C@@H]4C[C@H](O[C@@H]5O[C@H](C(=O)O)[C@@H](O)[C@H](O)[C@H]5O)CC[C@]4(C)[C@H]3CC[C@]12C [GCDCA-G, glycochenodeoxycholate‐3‐glucuronide]
fRIF (fraction sensitive to inhibition by rifampicin) [1]: 1 ± 0.08
AUC0-24h Geometric Mean Ratio +RIF/Control (90% CI) [2]: ~ 15

C[C@H](CCC(=O)NCC(=O)O)[C@H]1CC[C@H]2[C@@H]3CC[C@@H]4C[C@H](OS(=O)(=O)O)CC[C@]4(C)[C@H]3C[C@H](O)[C@]12C [GDCA-S, glycodeoxycholate‐3‐sulfate]
AUC0-24h Geometric Mean Ratio +RIF/Control (90% CI) [2]: greater than 2

C[C@H](CCC(=O)NCC(=O)O)[C@H]1CC[C@H]2[C@@H]3CC[C@@H]4C[C@H](OS(=O)(=O)O)CC[C@]4(C)[C@H]3CC[C@]12C [GLCA-S, glycolithocholate‐3‐sulfate]
AUC0-24h Geometric Mean Ratio +RIF/Control (90% CI) [2]: greater than 2

O=C(O)CCCCCCCCCCCCCCC(=O)O [HDA, hexadecanedioic acid]
fRIF (fraction sensitive to inhibition by rifampicin) [1]: 0.776 ± 0.093

O=C(O)C[C@H](O)C[C@H](O)/C=C/c1c(C2CC2)nc2ccccc2c1-c1ccc(F)cc1 [Pitavastatin, pitavastatin, reference compound]
fRIF (fraction sensitive to inhibition by rifampicin) [1]: 0.810 ± 0.043
AUC0-24h Geometric Mean Ratio +RIF/Control (90% CI) [3]: 4.0

CC(C)c1nc(N(C)S(C)(=O)=O)nc(-c2ccc(F)cc2)c1/C=C/[C@@H](O)C[C@@H](O)CC(=O)O [Rosuvastatin, rosuvastatin]
contribution of urinary excretion to the systemic elimination [4]: ca. 20%
fRIF (fraction sensitive to inhibition by rifampicin) [1]: 0.702 ± 0.122
AUC0-24h Geometric Mean Ratio +RIF/Control (90% CI) [3]: 2.5

C[C@H](CCC(=O)NCCS(=O)(=O)O)[C@H]1CC[C@H]2[C@@H]3CC[C@@H]4C[C@H](OS(=O)(=O)O)CC[C@]4(C)[C@H]3CC[C@]12C [TLCA-S, taurolithocholate‐3‐sulfate]
AUC0-24h Geometric Mean Ratio +RIF/Control (90% CI) [2]: greater than 2

CCCCC(=O)N(Cc1ccc(-c2ccccc2-c2nnn[nH]2)cc1)[C@H](C(=O)O)C(C)C [Valsartan, valsartan, reference compound]
fRIF (fraction sensitive to inhibition by rifampicin) [1]: 0.831 ± 0.036
AUC0-24h Geometric Mean Ratio +RIF/Control (90% CI) [3]: 5.5

CO[C@H]1/C=C/O[C@@]2(C)Oc3c(C)c(O)c4c(O)c(c(/C=N/N5CCN(C)CC5)c(O)c4c3C2=O)NC(=O)/C(C)=C\C=C\[C@H](C)[C@H](O)[C@@H](C)[C@@H](O)[C@@H](C)[C@H](OC(C)=O)[C@@H]1C [rifampicin]
AUC(0-t) ([5]; 150 mg): 19.8 ± 1.2 µM·h
Cmax ([5]; 150 mg): 4.78 ± 0.29 µM
AUC(0-t) ([5]; 300 mg): 55.5 ± 3.4 µM·h
AUC(0-t) ([5]; 600 mg): 141 ± 9 µM·h
Cmax ([5]; 600 mg): 22.8 ± 2.6 µM

direct bilirubins [D-BIL]
fRIF (fraction sensitive to inhibition by rifampicin) [1]: 0.976 ± 0.180
AUC0-24h Geometric Mean Ratio +RIF/Control (90% CI) [2]: 2.8
